Key:
Assay in all cases: relative viability (nuclei count vs DMSO), 5 days (fraction); higher = more cells survive
[1] = system: NCI-H1793
Method in brief: (§1)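 One day after seeding in 1536-well plates, lung cancer cell lines were dosed by pin tool. Dosing was either single-drug or a fixed anchor-drug dose plus five library-drug doses (not always all listed) in √10 steps. After 5 days, nuclei were stained in one fix-and-stain step and counted on 4× images, and relative viability is the nuclei count of treated wells over that of vehicle wells, given as the median of duplicate plates.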

[2] = system: LXF-289
Method in brief: as §1

[3] = system: NCI-H2228
Method in brief: as §1

[4] = system: HCC-827
Method in brief: as §1

[5] = system: NCI-H2405
Method in brief: as §1

[6] = system: NCI-H3122
Method in brief: as §1

[7] = system: NCI-H1944
Method in brief: as §1

[8] = system: BEN
Method in brief: as §1

[9] = system: RERF-LC-KJ
Method in brief: as §1

[10] = system: CAL-12T
Method in brief: as §1

[11] = system: NCI-H322M
Method in brief: as §1

[12] = system: NCI-H1650
Method in brief: as §1

[13] = system: HOP-62
Method in brief: as §1

[14] = system: NCI-H647
Method in brief: as §1

[15] = system: NCI-H1395
Method in brief: as §1

[16] = system: LCLC-97TM1
Method in brief: as §1

[17] = system: NCI-H1437
Method in brief: as §1

[18] = system: HCC-44
Method in brief: as §1

[19] = system: NCI-H2087
Method in brief: as §1

[20] = system: SK-LU-1
Method in brief: as §1

[21] = system: NCI-H727
Method in brief: as §1

[22] = system: 201T
Method in brief: as §1

Structure (SMILES): NC(=O)Nc1cc(-c2cccc(F)c2)sc1C(=O)N[C@H]1CCCNC1 [AZD7762] + CS(=O)(=O)CCNCc1ccc(-c2ccc3ncnc(Nc4ccc(OCc5cccc(F)c5)c(Cl)c4)c3c2)o1 [Lapatinib] (partner 2 µM)
- relative viability ([1]; first compound 0.01 µM): 1.08
- relative viability ([1]; first compound 0.03162 µM): 0.721
- relative viability ([1]; first compound 0.1 µM): 0.805
- relative viability ([1]; first compound 0.3162 µM): 0.874
- relative viability ([1]; first compound 1 µM): 0.261
- relative viability ([2]; first compound 0.01 µM): 0.906
- relative viability ([2]; first compound 0.03162 µM): 0.909
- relative viability ([2]; first compound 0.1 µM): 0.973
- relative viability ([2]; first compound 0.3162 µM): 0.912
- relative viability ([2]; first compound 1 µM): 0.983
- relative viability ([3]; first compound 0.01 µM): 1.28
- relative viability ([3]; first compound 0.03162 µM): 1.46
- relative viability ([3]; first compound 0.1 µM): 1.22
- relative viability ([3]; first compound 0.3162 µM): 0.34
- relative viability ([3]; first compound 1 µM): 0.231
- relative viability ([4]; first compound 0.01 µM): 0.202
- relative viability ([4]; first compound 0.03162 µM): 0.177
- relative viability ([4]; first compound 0.1 µM): 0.189
- relative viability ([4]; first compound 0.3162 µM): 0.178
- relative viability ([4]; first compound 1 µM): 0.197
- relative viability ([5]; first compound 0.01 µM): 1.11
- relative viability ([5]; first compound 0.03162 µM): 1.41
- relative viability ([5]; first compound 0.1 µM): 0.998
- relative viability ([5]; first compound 0.3162 µM): 1.01
- relative viability ([5]; first compound 1 µM): 0.422
- relative viability ([6]; first compound 0.01 µM): 0.978
- relative viability ([6]; first compound 0.03162 µM): 1.06
- relative viability ([6]; first compound 0.1 µM): 1.03
- relative viability ([6]; first compound 0.3162 µM): 0.907
- relative viability ([6]; first compound 1 µM): 1.09
- relative viability ([7]; first compound 0.01 µM): 0.977
- relative viability ([7]; first compound 0.03162 µM): 0.876
- relative viability ([7]; first compound 0.1 µM): 1.01
- relative viability ([7]; first compound 0.3162 µM): 0.846
- relative viability ([7]; first compound 1 µM): 1.01
- relative viability ([8]; first compound 0.01 µM): 0.788
- relative viability ([8]; first compound 0.03162 µM): 0.623
- relative viability ([8]; first compound 0.1 µM): 0.566
- relative viability ([8]; first compound 0.3162 µM): 0.833
- relative viability ([8]; first compound 1 µM): 0.488
- relative viability ([9]; first compound 0.01 µM): 0.865
- relative viability ([9]; first compound 0.03162 µM): 0.894
- relative viability ([9]; first compound 0.1 µM): 0.849
- relative viability ([9]; first compound 0.3162 µM): 0.819
- relative viability ([9]; first compound 1 µM): 0.956
- relative viability ([10]; first compound 0.01 µM): 0.781
- relative viability ([10]; first compound 0.03162 µM): 0.649
- relative viability ([10]; first compound 0.1 µM): 0.649
- relative viability ([10]; first compound 0.3162 µM): 0.703
- relative viability ([10]; first compound 1 µM): 0.314
- relative viability ([11]; first compound 0.01 µM): 0.627
- relative viability ([11]; first compound 0.03162 µM): 0.675
- relative viability ([11]; first compound 0.1 µM): 0.532
- relative viability ([11]; first compound 0.3162 µM): 0.535
- relative viability ([11]; first compound 1 µM): 0.456
- relative viability ([12]; first compound 0.01 µM): 0.747
- relative viability ([12]; first compound 0.03162 µM): 0.852
- relative viability ([12]; first compound 0.1 µM): 0.896
- relative viability ([12]; first compound 0.3162 µM): 0.434
- relative viability ([12]; first compound 1 µM): 0.167
- relative viability ([13]; first compound 0.01 µM): 0.993
- relative viability ([13]; first compound 0.03162 µM): 1.06
- relative viability ([13]; first compound 0.1 µM): 1.27
- relative viability ([13]; first compound 0.3162 µM): 0.989
- relative viability ([13]; first compound 1 µM): 0.565
- relative viability ([14]; first compound 0.01 µM): 1.14
- relative viability ([14]; first compound 0.03162 µM): 1.12
- relative viability ([14]; first compound 0.1 µM): 0.963
- relative viability ([14]; first compound 0.3162 µM): 0.519
- relative viability ([14]; first compound 1 µM): 0.0944
- relative viability ([15]; first compound 0.01 µM): 1.04
- relative viability ([15]; first compound 0.03162 µM): 1.06
- relative viability ([15]; first compound 0.1 µM): 1.05
- relative viability ([15]; first compound 0.3162 µM): 0.543
- relative viability ([15]; first compound 1 µM): 0.362
- relative viability ([16]; first compound 0.01 µM): 0.834
- relative viability ([16]; first compound 0.03162 µM): 1.13
- relative viability ([16]; first compound 0.1 µM): 0.821
- relative viability ([16]; first compound 0.3162 µM): 0.555
- relative viability ([16]; first compound 1 µM): 0.609
- relative viability ([17]; first compound 0.01 µM): 0.809
- relative viability ([17]; first compound 0.03162 µM): 0.647
- relative viability ([17]; first compound 0.1 µM): 0.875
- relative viability ([17]; first compound 0.3162 µM): 0.841
- relative viability ([17]; first compound 1 µM): 0.526
- relative viability ([18]; first compound 0.01 µM): 1.11
- relative viability ([18]; first compound 0.03162 µM): 0.952
- relative viability ([18]; first compound 0.1 µM): 0.998
- relative viability ([18]; first compound 0.3162 µM): 0.932
- relative viability ([18]; first compound 1 µM): 0.99
- relative viability ([19]; first compound 0.01 µM): 1.23
- relative viability ([19]; first compound 0.03162 µM): 1.01
- relative viability ([19]; first compound 0.1 µM): 1.01
- relative viability ([19]; first compound 0.3162 µM): 1.24
- relative viability ([19]; first compound 1 µM): 1.16
- relative viability ([20]; first compound 0.01 µM): 0.943
- relative viability ([20]; first compound 0.03162 µM): 0.714
- relative viability ([20]; first compound 0.1 µM): 0.456
- relative viability ([20]; first compound 0.3162 µM): 0.276
- relative viability ([20]; first compound 1 µM): 0.217
- relative viability ([21]; first compound 0.01 µM): 0.891
- relative viability ([21]; first compound 0.03162 µM): 0.985
- relative viability ([21]; first compound 0.1 µM): 0.578
- relative viability ([21]; first compound 0.3162 µM): 0.36
- relative viability ([21]; first compound 1 µM): 0.271
- relative viability ([22]; first compound 0.01 µM): 1.03
- relative viability ([22]; first compound 0.03162 µM): 0.99
- relative viability ([22]; first compound 0.1 µM): 1.03
- relative viability ([22]; first compound 0.3162 µM): 1.15
- relative viability ([22]; first compound 1 µM): 1.15

— the supplement of paper PMC10307832
